The test system of experiment [1] is TrkA-His tagged extracellular domain protein (Ala 34-Gly423). The experiment in a line: MST binding of CD44v3 mimetic peptides to TrkA. The conditions noted are these: TrkA-His 200 nM labelled with RED-Tris-NTA, PBS-T. The protocol: MST was conducted using an NT.115 A Pico MST instrument (Nano Temper Technologies GmbH) equipped with red and blue filter sets. The TrkA-His tagged extracellular domain protein (Ala 34-Gly423) (9966-TK-050; R&D Systems, United Kingdom), diluted to 200 nM in PBS-T buffer (supplied by the vendor), was labeled using a Monolith His-Tag Labeling Kit with RED-Tris-NTA (Nano Temper). The RED-Tris-NTA dye was diluted in PBS-T to 100 nM. The mix was incubated at RT in the dark for 30 min. Next, an extract expressing CD44v3-labeled protein (CD44v3-His) and ligand and/or TrkA was mixed at a 1:1 ratio and incubated at RT in the dark for 15 min. For the binding check, peptides and TrkA-His were used. Capillaries were filled individually and loaded into the instrument. The data were acquired using high MST power and 100% LED. The data were analyzed using MO Control Software (Nano Temper).
Fig. 2 The C-terminal region of CD44v3 and the His112 residue of TrkA are involved in the CD44v3/TrkA interaction. TrkA/CD44v3 complex association was detected by the proximity ligation assay (PLA) in wild-type TrkA- or TrkA_H112A- and CD44v3-expressing COS-7 cells. Proximity ligation assays were performed after 0, 5 and 30 min of NGF treatment (100 ng/ml). Representative images of signals detected by PLA (A) and their quantification (B). Sequence of CD44 exon variant 3 and deletion mutant Δ3 or Δ4 (C). TrkA/CD44v3 complex association was detected by PLA in wild-type TrkA and CD44v3 wild type or CD44v3 deleted mutant Δ3 or Δ4 expressing COS-7 (D, E). Sequence of CD44v3 mimetic peptides (F) and structure (G). TrkA binding to CD44v3 mimetic peptides by microscale thermophoresis (H) and effects of CD44v3 mimetic peptides 3 (RDRHLSFSGSG) and 4 ([…]) on TrkA/CD44v3 complex formation (I, J). Quantification of PLA was performed using ImageJ software (30 fields per condition of three different experiments). Statistical analyses were performed using one-way ANOVA followed by Bonferroni’s posttest.
To block the TrkA-CD44v3 association, 4 mimetic peptides of CD44v3 were designed corresponding to zone 1 [(K) STSSNTISAG], zone 2 (WEPNEENEDE), zone 3 (RDRHLSFSGSG) and zone 4 (IDDDEDFISST) (Fig. 2F & G). The binding capacities of the CD44v3 mimetic peptides to TrkA were then measured by MST (Fig. 2H). […] To confirm mimetic peptide 4 binding, we assessed its ability to bind TrkA using nanoscale differential scanning fluorimetry (nanoDSF; Supplementary Fig. 6A & B).

The test system of a further experiment is SUM-159-PT cells. The experiment in a line: Clonogenicity assay, SUM-159-PT. Format: cell-based. The conditions noted are these: Supplementary Fig. 9 A & B (P4; same observations = colony forming units reduced as in MDA-MB-231), Supplementary Fig. 10 B (siCD44v3).
Experiment [2] deals with TrkA/CD44v6 complex in MDA-MB-231 cells. The experiment in a line: PLA TrkA/CD44v6 complex formation in MDA-MB-231 cells. The conditions noted are these: NGF 100 ng/ml; 30 fields per condition, three experiments. Format: cell-based. How it is done:
(§1) Cells (10,000 cells per well) were grown on acid-washed eight-well glass slides (Thermo Scientific) in the appropriate medium supplemented with 10% FBS for 24 h. After NGF treatment, paraformaldehyde (PAF)-fixed cells were incubated with 4% bovine serum albumin (BSA) or 5% FBS (for 1 h at 20 °C), followed by overnight incubation with primary antibodies (rabbit anti-TrkA or rabbit anti-IgG + mouse anti-pan-CD44; mouse anti-CD44v3; mouse anti-CD44v6; mouse anti-IgG2a; mouse anti-IgG2b; or mouse anti-IgG1). PLA was performed following the manufacturer’s instructions in the assay kit (Duolink PLA; Sigma–Aldrich). To obtain the correct representation of the PLA signal for each condition, 30 fields per condition were observed using a fluorescence microscope (Eclipse TiU; Nikon, Japan). The PLA signals (red dots) were automatically quantified using ImageJ software (with an in-house-developed plug-in). […]
Fig. 3 CD44v3 mimetic peptide 4 blocks the TrkA-CD44 association in MDA-MB-231 breast cancer cells. TrkA/CD44v3 (A) and TrkA/CD44v6 (B) complex associations were detected by the proximity ligation assay (PLA) in MDA-MB-231 breast cancer cells. […] Quantification of the PLA results was performed by ImageJ software (30 randomly chosen fields per condition of three different experiments). […]

Experiment [3] concerns TrkA/CD44v3 complex in SUM159-PT cells. The experiment in a line: PLA TrkA/CD44v3 complex formation in SUM159-PT cells. In kind it is cell-based. The note with it: triple negative; NGF 100 ng/ml. How it is done:
as §1
Fig. 7 The TrkA/CD44v3 complex is formed in PR-negative breast cancer cells and tumors. TrkA/CD44v3 complex formation was measured in SUM159-PT (triple negative—i.e., ERα-, PR-, and Her2-) cells (A), T47-D (luminal A—i.e., ERα+, PR+, and Her2-) cells (B), BT-474 (luminal B—ERα+, PR+, and Her2+) cells (C), HCC-1954 (Her2-like—ERα-, PR-, and Her2+) cells (D), and 150 tumor patient samples obtained from US BioMax (HBre-Duc150Sur01) (E, F) using the proximity ligation assay (PLA). […]

In the case of “IDDDEDFISST [Peptide 4, mimetic peptide 4 (…) corresponding to the C-terminal region of CD44v3]”, in experiment [1], the “binding to TrkA by MST (in words)” value was “could bind TrkA”. In addition, in the experiment with SUM-159-PT cells, the “effect on clonogenic growth of SUM-159-PT cells” value is “The same observations were made in SUM-159PT”.
With “NGF: recombinant human β-NGF (Alomone Labs, Israel)”, the “effect on TrkA/CD44v6 complex formation (PLA) in MDA-MB-231 cells” value in experiment [2] is on record as “did not induce TrkA/CD44v6 complex formation”. Further, the “effect on TrkA/CD44v3 complex formation (PLA) in SUM159-PT cells” value in experiment [3] was “NGF induction of CD44v3/TrkA complex formation was observed in SUM-159PT (TN) and HCC-1954 (Her2) cells”.
